# Laboratory results as given in ChEMBL document CHEMBL1135933, “Synthesis of nitroindole derivatives with high affinity and selectivity for melatoninergic binding sites MT(3)” (J Med Chem, 2002).
# Key:
# [1] = target: Melatonin receptor type 1A (Homo sapiens, UniProt P48039); assay: Inhibition of 2-[125I]iodomelatonin binding to human Melatonin receptor type 1A expressed in HEK293 cells; format: cell-based
# Homo sapiens [2] = organism: Homo sapiens; assay: Selectivity ratio of binding affinity at MT2 receptor relative to MT3 receptor
# Homo sapiens [3] = organism: Homo sapiens; assay: Selectivity ratio of binding affinity at MT1 receptor relative to MT3 receptor
# [4] = target: T1, Melatonin receptor type 1B (Homo sapiens, UniProt P49286); assay: Inhibition of 2-[125I]iodomelatonin binding to human Melatonin receptor type 1B expressed in HEK293 cells; format: cell-based
# T1 sequence (P49286 whole entry): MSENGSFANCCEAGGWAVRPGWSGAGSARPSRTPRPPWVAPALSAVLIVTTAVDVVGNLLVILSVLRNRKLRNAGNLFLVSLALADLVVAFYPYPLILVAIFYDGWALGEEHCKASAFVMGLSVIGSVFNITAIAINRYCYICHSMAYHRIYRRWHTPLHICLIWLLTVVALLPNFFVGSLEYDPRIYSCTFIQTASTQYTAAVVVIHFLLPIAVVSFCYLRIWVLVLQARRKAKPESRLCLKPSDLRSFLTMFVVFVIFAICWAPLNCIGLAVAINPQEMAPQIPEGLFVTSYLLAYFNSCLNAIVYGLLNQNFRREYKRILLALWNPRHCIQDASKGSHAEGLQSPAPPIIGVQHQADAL
# Melatonin receptor type 1A, sequence (P48039 whole entry): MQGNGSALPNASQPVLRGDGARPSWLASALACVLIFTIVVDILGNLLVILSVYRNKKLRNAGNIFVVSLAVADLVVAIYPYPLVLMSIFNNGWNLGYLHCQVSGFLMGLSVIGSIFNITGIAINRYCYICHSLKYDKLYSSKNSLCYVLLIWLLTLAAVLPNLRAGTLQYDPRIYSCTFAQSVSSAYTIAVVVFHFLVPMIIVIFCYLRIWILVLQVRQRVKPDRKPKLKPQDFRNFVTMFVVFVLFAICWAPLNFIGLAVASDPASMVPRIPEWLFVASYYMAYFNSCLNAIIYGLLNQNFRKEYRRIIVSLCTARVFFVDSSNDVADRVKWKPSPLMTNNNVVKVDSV
SMILES,Ki [1] [nM],Selectivity (Homo sapiens [2]),Selectivity (Homo sapiens [3]),Ki [4] [nM]
COc1ccc2c(c1)c(CCNC(C)=O)cn2C,2.6,1.1,0.929,3.1
COc1cc([N+](=O)[O-])c2[nH]cc(CCNC(C)=O)c2c1,49,–,–,29
COc1ccc2c(c(CCNC(C)=O)cn2C)c1[N+](=O)[O-],8560,625,27600,194
COc1cc2c(CCNC(C)=O)c(I)n(C)c2cc1[N+](=O)[O-],1.1,–,–,0.77
COc1ccc2c(c1)c(CCNC(C)=O)c(I)n2C,0.08,–,–,0.047
COc1cc2c(CCNC(C)=O)c[nH]c2cc1[N+](=O)[O-],14.6,–,–,5.3
COc1ccc2[nH]cc(CCNC(C)=O)c2c1[N+](=O)[O-],1060,745,964,820
COc1cc2c(CCNC(C)=O)c(I)[nH]c2cc1[N+](=O)[O-],0.3,–,–,–
COc1ccc2c(c(CCNC(C)=O)c(I)n2C)c1[N+](=O)[O-],1880,–,–,39
COc1ccc2[nH]c(I)c(CCNC(C)=O)c2c1[N+](=O)[O-],19.2,–,–,23.7
